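Assay format: 96-well plates, 48-hour exposure. TGI denotes the concentration required for complete inhibition of growth.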
Legend:
Test in all cases: NCI tumour cell line growth inhibition, 48 h
[1] = tested on: CAKI-1 renal
[2] = tested on: DU-145 prostate
[3] = tested on: HCT-116 colon
[4] = tested on: HOP-92 NSCLC
[5] = tested on: MALME-3M melanoma
[6] = tested on: MCF7 breast
[7] = tested on: MDA-MB-435
[8] = tested on: MDA-N
[9] = tested on: PC-3 prostate
[10] = tested on: SF-539 CNS
[11] = tested on: SK-MEL-2 melanoma
[12] = tested on: SK-MEL-28 melanoma
[13] = tested on: SN12C renal
[14] = tested on: SNB-19 CNS
[15] = tested on: SF-295 CNS

Row | Compound | TGI [1] [µM] | TGI [2] [µM] | TGI [3] [µM] | TGI [4] [µM] | TGI [5] [µM] | TGI [6] [µM] | TGI [7] [µM] | TGI [8] [µM] | TGI [9] [µM] | TGI [10] [µM] | TGI [11] [µM] | TGI [12] [µM] | TGI [13] [µM] | TGI [14] [µM] | TGI [15] [µM]
1 | C[C@H]1C(OCCOC2O[C@@H]3O[C@@]4(C)CC[C@H]5[C@H](C)CCC([C@H]2C)[C@@]35O4)O[C@@H]2O[C@@]3(C)CC[C@H]4[C@H](C)CCC1[C@@]24O3 (stereo not given in full) | > 100 | 74.3 | 78.6 | > 100 | 41.5 | > 100 | > 100 | > 100 | > 100 | > 100 | 42.3 | > 100 | 52.6 | > 100 | 
2 | CC1(C)C=[N+]([O-])C(C)(C)N1 | > 100 | > 100 | > 100 | > 100 | > 100 | > 100 | > 100 | > 100 | > 100 | > 100 | > 100 | > 100 | > 100 | > 100 | > 100
3 | CCCC(=O)N/S(=N/S(=O)(=O)c1ccc(Cl)cc1)C(Cl)(Cl)Cl (stereo not given) |  | > 100 | > 100 |  | > 100 | > 100 | > 100 | > 100 | > 100 | > 100 | > 100 | > 100 | > 100 | > 100 | > 100
4 | CN(C)c1ncnc2c1ncn2C1C=CC(COS(N)(=O)=O)C1 (stereo not given) | > 100 | > 100 | > 100 | > 100 | > 100 | > 100 | > 100 | > 100 | > 100 | > 100 | > 100 | > 100 | > 100 | > 100 | > 100
5 | NC(C(F)(F)F)(C(F)(F)F)P(=O)(c1ccccc1)c1ccccc1 | > 100 | > 100 | > 100 | > 100 | > 100 | > 100 | > 100 | > 100 | > 100 | > 100 | > 100 | > 100 | > 100 | > 100 | > 100
6 | Cn1cc2c(=O)n3ncn(-c4ccc(Br)cc4)c3nc2n1 | > 100 | > 100 | > 100 | > 100 | > 100 | > 100 | > 100 | > 100 | > 100 | > 100 | > 100 | > 100 | > 100 | > 100 | > 100
7 | COc1ccc(C2SC(N)=Nc3c2c(C)nn3C(=O)c2ccc(Cl)cc2)cc1 (stereo not given) | > 10 | > 10 | > 10 | > 10 | > 10 | > 10 | > 10 | > 10 | > 10 | > 10 | > 10 | > 10 | > 10 | > 10 | > 10
8 | COc1cc2c(cc1OC)C1C(O)C(OC)C=C3CC[N+](C)(C2)C31 (stereo not given) | > 100 | > 100 | > 100 | > 100 | > 100 | > 100 | > 100 | > 100 | > 100 | > 100 | > 100 | > 100 | > 100 | > 100 | > 100
9 | CCOC(=O)c1cc(C2CCN(CC(C)CC)C2=S)c(C(=O)/C=C(/C)N)[nH]1 (stereo not given) | > 50 | > 50 | > 50 |  | > 50 | > 50 | > 50 | > 50 | > 50 | > 50 | > 50 |  | > 50 | > 50 | > 50
10 | CC1(C)CCCCCCCCCC(C)(CCCO)C1=O (stereo not given) | 31.6 | 31 | 31.2 | 27.7 | 30.6 | 31.1 | 34 | 30 | 27 |  | 28.9 | 34.2 | 32.2 | 31.9 | 32.7
11 | COc1cc(C)cc2c1C(=O)C(Br)=CC2=O | 3.18 | 32.4 | 18.6 | 5.41 | 4.73 | 21.6 | 5.68 | 8.16 | 31.3 | 28.5 | 29.4 | 33.3 | 30.9 | 30.2 | 30
12 | O=c1cc(NCC2CCCCC2)[nH]c(=O)[nH]1 |  | > 100 | > 100 | > 100 | > 100 | > 100 | > 100 | > 100 | > 100 | > 100 |  | > 100 | > 100 | > 100 | > 100
13 | Cc1ccc(S(=O)(=O)[N-]C2C(=O)c3ccccc3C(=O)C2[n+]2cccc(C(N)=O)c2)cc1 (stereo not given) | > 100 | > 100 | 36 | > 100 |  | > 100 | > 100 | > 100 | > 100 | > 100 | > 100 | > 100 | > 100 | > 100 | > 100
14 | COc1cc(/C=C2/SC(c3ccccc3)N(c3ccc(Cl)cc3)C2=O)cc(OC)c1OC (stereo not given) | > 100 | > 100 | > 100 | > 100 | > 100 | > 100 | 24.2 | 31.8 | > 100 | > 100 | > 100 | > 100 | > 100 | > 100 | > 100
15 | O=c1n(-c2ccccc2)c(=O)n2n1C1CCC2CC1 | > 100 | > 100 | > 100 | > 100 |  | > 100 | > 100 | > 100 | > 100 | > 100 | > 100 | > 100 | > 100 | > 100 | > 100
